Data taken from patent publication US8293734B2, “Nitroimidazooxazine and nitroimidazooxazole analogues and their uses” (priority 2009, dated 2012).

melting point | Structure (SMILES)
215 to 217 °C | CC1(COc2ccc(-c3ccc(C(F)(F)F)cc3)nc2)CCn2cc([N+](=O)[O-])nc2O1 (stereo not shown)
233 to 235 °C | O=[N+]([O-])c1cn2c(n1)OCC(COc1ccc(-c3ccc(C(F)(F)F)cc3)nc1)C2 (stereo not shown)
100 to 101 °C | CC1(COCc2ccc(OC(F)(F)F)cc2)CCn2cc([N+](=O)[O-])nc2O1 (stereo not shown)
218 to 221 °C | O=[N+]([O-])c1cn2c(n1)OCC(COc1ccc(-c3ccc(C(F)(F)F)cc3)cc1)C2 (stereo not shown)
212 to 214 °C | CC1(COc2ccc(-c3ccc(C(F)(F)F)cc3)cn2)CCn2cc([N+](=O)[O-])nc2O1 (stereo not shown)
200 to 201 °C | CC1(COc2cnc(-c3ccc(F)cc3)cn2)Cn2cc([N+](=O)[O-])nc2O1 (stereo not shown)
141 to 143 °C | O=[N+]([O-])c1cn2c(n1)OCC(COc1ccc(OC(F)(F)F)cc1)C2 (racemic)
172 to 174 °C | CC1(COc2ccc(-c3ccc(OC(F)(F)F)cc3)cn2)Cn2cc([N+](=O)[O-])nc2O1 (stereo not shown)
180 to 182 °C | O=[N+]([O-])c1cn2c(n1)OCC(COc1ccc(-c3ccc(C(F)(F)F)cc3)cn1)C2 (stereo not shown)
162 to 164 °C | CC1(COc2ccc(-c3ccc(F)cc3)cn2)Cn2cc([N+](=O)[O-])nc2O1 (stereo not shown)
192 to 194 °C | O=[N+]([O-])c1cn2c(n1)OCC(COc1ccc(-c3ccc(OC(F)(F)F)cc3)cc1)C2 (stereo not shown)
242 to 245 °C | O=[N+]([O-])c1cn2c(n1)OC(COc1ccc(-c3ccc(C(F)(F)F)cc3)cc1)CC2 (stereo not shown)
180 to 181 °C | O=[N+]([O-])c1cn2c(n1)OCC(COc1ccc(-c3ccc(OC(F)(F)F)cc3)nc1)C2 (stereo not shown)
210 to 211 °C | O=[N+]([O-])c1cn2c(n1)OC(COc1ccc(-c3ccc(C(F)(F)F)cc3)cc1)C2 (stereo not shown)
161 to 163 °C | O=[N+]([O-])c1cn2c(n1)OC(COc1ccc(-c3ccc(OC(F)(F)F)cc3)cn1)CC2 (stereo not shown)
80 to 82 °C | CC1(COCc2cccc(-c3ccc(OC(F)(F)F)cc3)c2)CCn2cc([N+](=O)[O-])nc2O1 (stereo not shown)
195 to 198 °C | CC1(COc2ccc(-c3ccc(OC(F)(F)F)cc3)cn2)CCn2cc([N+](=O)[O-])nc2O1 (stereo not shown)
134 to 135 °C | O=[N+]([O-])c1cn2c(n1)OC(COCc1ccc(OC(F)(F)F)cc1)C2 (stereo not shown)
222 to 224 °C | O=[N+]([O-])c1cn2c(n1)OC(COc1ccc(OCc3ccccc3)cc1)CC2 (stereo not shown) (hydrate or solvate)
108 to 110 °C | CC1(COCc2cccc(OC(F)(F)F)c2)CCn2cc([N+](=O)[O-])nc2O1 (stereo not shown)
127 to 130 °C | O=[N+]([O-])c1cn2c(n1)OC(COc1ccc(-c3ccc(OC(F)(F)F)cc3)cn1)C2 (stereo not shown)
208 to 210 °C | O=[N+]([O-])c1cn2c(n1)OC(COc1ccc(OCc3ccccc3)cc1)C2 (stereo not shown)

melting point | Structure (SMILES)
200 to 201 °C | O=[N+]([O-])c1cn2c(n1)OC(COc1ccc(-c3ccc(OC(F)(F)F)cc3)cc1)C2 (stereo not shown)
196 °C (dec.) | CC1(COc2ncc(-c3ccc(F)cc3)cn2)Cn2cc([N+](=O)[O-])nc2O1 (stereo not shown)
227 °C (dec.) | CC1(COc2ncc(-c3ccc(OC(F)(F)F)cc3)cn2)Cn2cc([N+](=O)[O-])nc2O1 (stereo not shown)
160 to 161 °C | O=[N+]([O-])c1cn2c(n1)OCC(COc1ccc(-c3ccc(F)cc3)cn1)C2 (stereo not shown)
201 to 203 °C | O=[N+]([O-])c1cn2c(n1)OCC(COc1ccc(-c3ccc(F)cc3)cc1)C2 (stereo not shown)
209 to 211 °C | CC1(COc2ccc(-c3ccc(OC(F)(F)F)cc3)nc2)Cn2cc([N+](=O)[O-])nc2O1 (stereo not shown)
138 to 139 °C | O=[N+]([O-])c1cn2c(n1)OC[C@@H](COc1ccc(OC(F)(F)F)cc1)C2
180 to 181 °C | CC1(COc2ccc(-c3ccc(F)cc3)nc2)Cn2cc([N+](=O)[O-])nc2O1 (stereo not shown)
224 to 226 °C | O=[N+]([O-])c1cn2c(n1)OC(COc1ccc(-c3ccc(F)cc3)cc1)C2 (stereo not shown)
214 to 216 °C | O=[N+]([O-])c1cn2c(n1)OCC(COc1ccc(-c3ccc(F)cc3)nc1)C2 (stereo not shown)
223 to 225 °C | CC1(COc2cnc(-c3ccc(OC(F)(F)F)cc3)nc2)Cn2cc([N+](=O)[O-])nc2O1 (stereo not shown)
160 to 162 °C | CC1(COc2ccc(-c3ccc(F)cc3)cc2)CCn2cc([N+](=O)[O-])nc2O1 (stereo not shown)
182 to 183 °C | O=[N+]([O-])c1cn2c(n1)OCC(COc1ccc(-c3ccc(OC(F)(F)F)cc3)cn1)C2 (stereo not shown)
222 to 224 °C | CC1(COc2cnc(-c3ccc(OC(F)(F)F)cc3)cn2)Cn2cc([N+](=O)[O-])nc2O1 (stereo not shown)
123 to 124 °C | O=[N+]([O-])c1cn2c(n1)OC(COCc1ccc(OCc3ccccc3)cc1)C2 (stereo not shown)
170 to 172 °C | O=[N+]([O-])c1cn2c(n1)OC(COc1ccc(OC(F)(F)F)cc1)C2 (stereo not shown)
174 to 176 °C | CC1(COc2ccc(OCc3ccccc3)cc2)CCn2cc([N+](=O)[O-])nc2O1 (stereo not shown)
202 to 203 °C | CC1(COc2ccc(-c3ccc(OC(F)(F)F)cc3)nc2)CCn2cc([N+](=O)[O-])nc2O1 (stereo not shown)
196 to 198 °C | CC1(COc2ccc(-c3ccc(C(F)(F)F)cc3)cc2)CCn2cc([N+](=O)[O-])nc2O1 (stereo not shown)
201 to 203 °C | CC1(COc2cnc(-c3ccc(F)cc3)nc2)Cn2cc([N+](=O)[O-])nc2O1 (stereo not shown)
139 to 140 °C | O=[N+]([O-])c1cn2c(n1)OC[C@H](COc1ccc(OC(F)(F)F)cc1)C2
